Assays:
[1] = acceleration test (stability); format: physicochemical; settings: 40° C.±2° C., relative humidity 75%±5%
Protocol: (§1) Stability tests were performed on the samples of Examples 1, 2, 3, 4 and 5. […] Please refer to the results of the acceleration test (40° C.±2° C., relative humidity 75%±5%) of Table 1 and the results of the long-term stability test (25° C.±2° C., relative humidity 60%±10%) of Table 2.

long-term stability test = format: physicochemical; settings: 25° C.±2° C., relative humidity 60%±10%
Protocol: as §1

(S)-2-(4-fluorophenyl)-4-(piperidine-3-aminomethyl)thieno[2,3-d]pyridazine-7-carboxamide hydrochloride [Example 110601-2]
99.6%: Content (calculated by dried product )(%) (long-term stability test; 9 months, hydrochloride)
0.04%: (%) Impurity B (%) ([1]; 2 months, hydrochloride)
0.08%: Enantiomers (%) (long-term stability test; 9 months, hydrochloride) | Enantiomers (%) (long-term stability test; 24 months)
0.43%: Total relevant substances (%) (long-term stability test; 36 months, hydrochloride)
0.03%: (%) Impurity B (%) ([1]; 1 month, hydrochloride) | Single largest impurity (%) ([1]; 1 month, hydrochloride) | Impurity C (%) ([1]; 2 months, hydrochloride) | Single largest impurity (%) (long-term stability test; 3 months, hydrochloride) | ImpurityC(%) (long-term stability test; 12 months, hydrochloride)
0.28%: Impurity A (%) ([1]; 1 month, hydrochloride)
99.1%: content(%) ([1]; 2 months, hydrochloride) | Content (calculated by dried product )(%) (long-term stability test; 24 months, hydrochloride)
0.39%: Total relevant substances (%) (long-term stability test; 3 months, hydrochloride)
0.33%: Total relevant substances (%) ([1]; 6 months, hydrochloride)
99.9%: content(%) ([1]; 3 months, hydrochloride)
7.3%: Loss on drying (%) ([1]; 0 month, hydrochloride) | Loss on drying (%) ([1]; 1 month, hydrochloride) | Loss on drying (%) ([1]; 3 months, hydrochloride) | Loss on drying (%) (long-term stability test; 0 month, hydrochloride) | Loss on drying (%) (long-term stability test; 3 months, hydrochloride) | Loss on drying (%) (long-term stability test; 9 months, hydrochloride)
99.8%: Content (calculated by dried product )(%) (long-term stability test; 3 months, hydrochloride)
98.7%: content(%) ([1]; 0 month, hydrochloride) | Content (calculated by dried product )(%) (long-term stability test; 0 month, hydrochloride)
100.7%: Content (calculated by dried product )(%) (long-term stability test; 18 months, hydrochloride)
unchanged: Crystal form ([1]; 0 month) | Crystal form ([1]; 1 month) | Crystal form ([1]; 2 months) | Crystal form ([1]; 3 months) | Crystal form ([1]; 6 months) | Crystal form (long-term stability test; 0 month) | Crystal form (long-term stability test; 3 months) | Crystal form (long-term stability test; 6 months) | Crystal form (long-term stability test; 9 months) | Crystal form (long-term stability test; 12 months) | Crystal form (long-term stability test; 18 months) | Crystal form (long-term stability test; 24 months) | Crystal form (long-term stability test; 36 months)
100.1%: content(%) ([1]; 6 months, hydrochloride)
0.07%: Enantiomer (%) ([1]; 6 months, hydrochloride) | Enantiomers (%) (long-term stability test; 6 months, hydrochloride) | Enantiomers (%) (long-term stability test; 12 months, hydrochloride) | Enantiomers (%) (long-term stability test; 18 months, hydrochloride)
yellow crystalline: appearance (long-term stability test; 0 month, hydrochloride) | appearance (long-term stability test; 3 months, hydrochloride) | appearance (long-term stability test; 6 months, hydrochloride) | appearance (long-term stability test; 9 months, hydrochloride) | appearance (long-term stability test; 12 months, hydrochloride) | appearance (long-term stability test; 18 months, hydrochloride) | appearance (long-term stability test; 24 months, hydrochloride) | appearance (long-term stability test; 36 months, hydrochloride)
0.1%: Enantiomer (%) ([1]; 2 months, hydrochloride)
0.01%: ImpurityB(%) (long-term stability test; 12 months)
0.06%: Enantiomers (%) (long-term stability test; 36 months, hydrochloride)
0.37%: Total relevant substances (%) (long-term stability test; 24 months, hydrochloride)
0.42%: Total relevant substances (%) ([1]; 0 month, hydrochloride) | Total relevant substances (%) ([1]; 1 month, hydrochloride) | Total relevant substances (%) (long-term stability test; 0 month, hydrochloride)
0.32%: Impurity A (%) ([1]; 0 month, hydrochloride) | ImpurityA(%) (long-term stability test; 0 month, hydrochloride)
99.5%: content(%) ([1]; 1 month, hydrochloride) | Content (calculated by dried product )(%) (long-term stability test; 36 months, hydrochloride)
0.00%: (%) Impurity B (%) ([1]; 0 month) | (%) Impurity B (%) ([1]; 3 months) | (%) Impurity B (%) ([1]; 6 months) | ImpurityB(%) (long-term stability test; 0 month) | ImpurityB(%) (long-term stability test; 3 months) | ImpurityB(%) (long-term stability test; 6 months) | ImpurityB(%) (long-term stability test; 18 months) | ImpurityB(%) (long-term stability test; 24 months)
yellow crystalline powder: appearance ([1]; 0 month) | appearance ([1]; 1 month) | appearance ([1]; 2 months) | appearance ([1]; 3 months) | appearance ([1]; 6 months)
99.7%: Content (calculated by dried product )(%) (long-term stability test; 6 months, hydrochloride) | Content (calculated by dried product )(%) (long-term stability test; 12 months, hydrochloride)
0.25%: Impurity A (%) ([1]; 3 months, hydrochloride) | Impurity A (%) ([1]; 6 months, hydrochloride) | ImpurityA(%) (long-term stability test; 6 months, hydrochloride)
0.09%: Enantiomer (%) ([1]; 0 month, hydrochloride) | Enantiomer (%) ([1]; 3 months, hydrochloride) | Enantiomers (%) (long-term stability test; 0 month, hydrochloride) | Enantiomers (%) (long-term stability test; 3 months, hydrochloride)
0.02%: Impurity C (%) ([1]; 0 month, hydrochloride) | Single largest impurity (%) ([1]; 0 month, hydrochloride) | Impurity C (%) ([1]; 1 month) | Single largest impurity (%) ([1]; 2 months, hydrochloride) | Impurity C (%) ([1]; 3 months) | Single largest impurity (%) ([1]; 3 months, hydrochloride) | Impurity C (%) ([1]; 6 months) | Single largest impurity (%) ([1]; 6 months, hydrochloride) | ImpurityC(%) (long-term stability test; 0 month, hydrochloride) | Single largest impurity (%) (long-term stability test; 0 month, hydrochloride) | ImpurityC(%) (long-term stability test; 3 months) | ImpurityC(%) (long-term stability test; 6 months, hydrochloride) | Single largest impurity (%) (long-term stability test; 6 months, hydrochloride) | ImpurityC(%) (long-term stability test; 9 months) | ImpurityB(%) (long-term stability test; 9 months, hydrochloride) | Single largest impurity (%) (long-term stability test; 9 months, hydrochloride) | Single largest impurity (%) (long-term stability test; 12 months) | Single largest impurity (%) (long-term stability test; 18 months) | ImpurityC(%) (long-term stability test; 18 months, hydrochloride) | ImpurityC(%) (long-term stability test; 24 months) | Single largest impurity (%) (long-term stability test; 24 months) | ImpurityC(%) (long-term stability test; 36 months) | Single largest impurity (%) (long-term stability test; 36 months) | ImpurityB(%) (long-term stability test; 36 months, hydrochloride)
0.38%: Total relevant substances (%) (long-term stability test; 9 months, hydrochloride)
7.4%: Loss on drying (%) (long-term stability test; 12 months, hydrochloride)
0.31%: Impurity A (%) ([1]; 2 months, hydrochloride) | ImpurityA(%) (long-term stability test; 36 months, hydrochloride)
0.44%: Total relevant substances (%) ([1]; 2 months, hydrochloride)
0.12%: Enantiomer (%) ([1]; 1 month, hydrochloride)
0.27%: ImpurityA(%) (long-term stability test; 9 months, hydrochloride)
0.26%: ImpurityA(%) (long-term stability test; 12 months, hydrochloride)
0.36%: Total relevant substances (%) (long-term stability test; 12 months, hydrochloride) | Total relevant substances (%) (long-term stability test; 18 months, hydrochloride)
0.30%: ImpurityA(%) (long-term stability test; 3 months, hydrochloride) | ImpurityA(%) (long-term stability test; 18 months, hydrochloride) | ImpurityA(%) (long-term stability test; 24 months, hydrochloride)
7.2%: Loss on drying (%) ([1]; 2 months, hydrochloride) | Loss on drying (%) ([1]; 6 months, hydrochloride) | Loss on drying (%) (long-term stability test; 6 months, hydrochloride) | Loss on drying (%) (long-term stability test; 18 months, hydrochloride) | Loss on drying (%) (long-term stability test; 24 months, hydrochloride) | Loss on drying (%) (long-term stability test; 36 months, hydrochloride)
0.34%: Total relevant substances (%) ([1]; 3 months, hydrochloride) | Total relevant substances (%) (long-term stability test; 6 months, hydrochloride)

From patent publication US20230183259A1, “Crystal Form Of Thiofuran Pyridazine Compound, Preparation Method Therefor And Application Thereof” (ZHEJIANG MEDICINE CO., LTD. XINCHANG PHARMACEUTICAL FACTORY, priority 2020, published 2023)
